Assay [1] relates to children without behavioral abnormalities; adults. In words: Secretin stimulatory response (pancreatic juice output) in non-autistic children and adults. Format: in vivo, human. How it is done: The time required to collect basal duodenal fluid samples (1–2 ml) prior to secretin administration was 2–5 minutes, which was similar to that of non-autistic controls. […] Published adult responses using duodenal intubation and extended periods of specimen collection vary between 1.5 and 4.9 ml/min^56,57. Six out of 7 autistic patients who had chronic loose stools had pancreatico-biliary secretion rates above 5 ml/min (FIG. 4). […] The highest rate of secretion was 10 ml/min in one child.

Assay [2] deals with ovariectomized, estrogen-primed rats. The conditions noted are these: cited from earlier work.
Assay [3] relates to children with autistic behavior. In words: Evoked potential studies and SPECT imaging of the brain before and after secretin (Case 1). Format: in vivo, human. The source says: Case 1. […], was the product of a full-term uncomplicated pregnancy. Development of language and social behavior proceeded normally until about 15 months of age. At that time they lost their expressive vocabulary and their social behavior deteriorated. They were clinically diagnosed with autism by a pediatric neurologist. A multidisciplinary evaluation changed the diagnosis to PDD not otherwise specified. […] Because of their chronic diarrhea and elevated antigliadin IgG antibody titer, they underwent an upper gastrointestinal endoscopy. […] Three weeks after the procedure their parent reported significant changes in their gastrointestinal symptoms and behavior. […] More dramatic changes occurred in their autistic behavior (Table 4). […] Eight months after the procedure they have still retained their cognitive gains.

This is an account of results in patent US7091182B2, “Method for assisting in differential diagnosis and treatment of autistic syndromes” (Repligen Corporation, priority 1997, dated 2006).

“Also recorded” adds a separate entry of the source.

As to secretin, in assay [1] (children 3–7 years of age, own data, same endoscopic collection technique), the “average stimulatory response for secretin” value is 1 to 2 mL/min. The “typical pancreatic juice output” value in assay [1] (children without behavioral abnormalities, ages 1 to 6) was 1 to 2 mL/min. Further, the “circadian rise of LH secretion” value in assay [2] was “strikingly effective in increasing”. Moreover, the “repeat evoked potential studies” value in assay [3] (Case 1, eight months after secretin administration) is “only a minimal delay in responses”. The “SPECT, cerebral perfusion / blood flow” value in assay [3] (Case 1, follow-up versus pre-secretin study) is “marked improvement in the cerebral blood flow; also recorded: less marked decrease in perfusion of right posterior parietal and right temporal lobes”.
